The source of these data is patent publication US20220289680A1, “METHODS FOR MAKING DIMERIC NAPHTHALIMIDES AND SOLID STATE FORMS OF THE SAME” (Alucent Biomedical, Inc., priority 2018, published 2022).

SMILES strings stand for the structures.

What all share (type): physicochemical
Data set [1] can be described thus: Solubility measurements in various solvents (visual inspection of dissolution). The settings on record: thermodynamic from solid. As for the experimental part: The mass of a sample of Compound of Formula (I) was determined, and to that sample was added an aliquot of solvent, as shown in Table 5. Visual inspection was used to determine whether dissolution occurred. The solubility of Compound of Formula (I) in each solvent was calculated by dividing the weight of the sample by the total amount of solvent used to dissolve the sample. Table 6 lists the solubility of Compound of Formula (I) in each solvent.

A short description of data set [2]: Dynamic vapor sorption (DVS) analysis. Conditions: 25° C. How it is done:
(§1) DVS analysis was carried out using a TA Instruments Q5000 Dynamic Vapor Sorption analyzer. The instrument was calibrated with standard weights and a sodium bromide standard for humidity. Approximately 10-25 mg of sample was loaded into a metal-coated quartz pan for analysis. The sample was analyzed at 25° C. with a maximum equilibration time of one hour in 10% relative humidity (RH) steps from 5% to 95% RH (adsorption cycle) and from 95% to 5% RH (desorption cycle). The movement from one step to the next occurred either after satisfying the equilibrium criterion of 0.01% weight change or, if the equilibrium criterion was not met, after one hour. The percent weight change values were calculated using Microsoft Excel®.

Data set [3] in a line: Post-DVS X-ray powder diffraction analysis (solid form stability). Conditions: after DVS cycling 5%-95%-5% RH.
From the text: (§2) The Rigaku Smart-Lab X-ray diffraction system was configured for reflection Bragg-Brentano geometry using a line source X-ray beam. The x-ray source was a Cu Long Fine Focus tube that was operated at 40 kV and 44 ma. That source provided an incident beam profile (at the sample) that changed from a narrow line at high angles to a broad rectangle at low angles. Beam conditioning slits were used on the X-ray source to ensure that the maximum beam size is less than 10 mm, both along the line and normal to the line. The Rigaku Smart-Lab was operated to give peak widths of 0.1 degrees two-theta or less. The axial divergence of the X-ray beam was controlled by 5.0-degree Soller slits in both the incident and diffracted beam paths.
(§3) Powder samples were prepared in a low-background Si holder using light manual pressure to keep the sample surfaces flat and level with the reference surface of the sample holder. Each sample was analyzed from 2 to 40 degrees two-theta using a continuous scan of 6 degrees two-theta per minute, with an effective step size of 0.02 degrees two-theta.
as §1

Data set [4] can be described thus: Post-heating X-ray powder diffraction analysis (solid form stability). Conditions: heated at 80° C. for 20 minutes.
From the text: as §2, §3
A sample of Form 2 was heated at 80° C. for 20 minutes. After cooling, the sample was analyzed using x-ray powder diffraction.

Where [5] appears, read: sample of Example 3 (synthesized by a method similar to Example 4, Form 1).
Setting [6] is: slurry-derived samples of Example 2.

The term solubility denotes the concentration that dissolves in the medium under given conditions. With `NCCOCCOCCNc1ccc2c3c(cccc13)C(=O)N(CCOCCOCCN1C(=O)c3cccc4c(NCCOCCOCCN)ccc(c34)C1=O)C2=O` [Compound of Formula (I), 2,2′-((ethane-1,2-diylbis(oxy))bis(ethane-2,1-diyl))bis(6-((2-(2-(2-aminoethoxy)ethoxy)ethyl)amino)-1H-benzo[de]isoquinoline-1,3(2H)-dione)], the solubility in data set [1] (1,1,1,3,3,3-hexafluoro-2-propanol (HFIPA), organic solvent or mixture) is 18000 µg/mL; in data set [1] (1,4-dioxane, organic solvent or mixture), < 1000 µg/mL; in data set [1] (2,2,2-trifluoroethanol (TFE), organic solvent or mixture) it was 18000 µg/mL; in data set [1] (2-methyl tetrahydrofuran (2-MeTHF), organic solvent or mixture), < 1000 µg/mL; in data set [1] (N,N-dimethylformamide (DMF), organic solvent or mixture, N,N-dinnethylformamide (DMF)), < 1000 µg/mL; in data set [1] (acetone, organic solvent or mixture) it was < 1000 µg/mL. Moreover, the solubility in data set [1] (acetone/water (95/5, v/v), organic solvent or mixture) was < 1000 µg/mL; in data set [1] (acetonitrile/water (95/5, v/v), organic solvent or mixture) it was < 1000 µg/mL; in data set [1] (dichloromethane (DCM), organic solvent or mixture), < 1000 µg/mL; in data set [1] (dimethylsulfoxide (DMSO), organic solvent or mixture) it was < 1000 µg/mL; in data set [1] (ethanol/water (95/5, v/v), organic solvent or mixture) it was < 1000 µg/mL; in data set [1] (methyl ethyl ketone (MEK), organic solvent or mixture), < 1000 µg/mL. For the same molecule, the solubility in data set [1] (organic solvent or mixture, 2-propanol (2-PrOH)) was < 1000 µg/mL; in data set [1] (organic solvent or mixture, acetonitrile (CAN)) it was < 1000 µg/mL; in data set [1] (organic solvent or mixture, diethyl ether (Et2O)), < 1000 µg/mL; in data set [1] (organic solvent or mixture, ethanol (EtOH)), < 1000 µg/mL; in data set [1] (organic solvent or mixture, ethyl acetate (EtOAc)), < 1000 µg/mL; in data set [1] (organic solvent or mixture, methanol (MeOH)) it was < 1000 µg/mL. Besides, the solubility in data set [1] (tetrahydrofuran (THF), organic solvent or mixture) was < 1000 µg/mL; in data set [1] (tetrahydrofuran/water (95/5, v/v), organic solvent or mixture) it was < 1000 µg/mL; in data set [1] (toluene, organic solvent or mixture), < 1000 µg/mL; in data set [1] (water), < 1000 µg/mL. The “DVS weight gain when cycling from 5% to 95% relative humidity” value (“DVS weight gain … to 95% relative humidity” for short) in data set [2] (setting [5]) was determined as 16.36%. The “DVS weight loss upon drying at 5% relative humidity” value in data set [2] (setting [5]) is listed as 0.66%. For the same molecule, in data set [2] (setting [5]), the “DVS weight loss when cycling from 95% to 5% relative humidity” value (“DVS weight loss … to 5% relative humidity” for short) turned out to be 15.51%. Besides, the “XRPD pattern after DVS cycling relative to the same sample prior to DVS analysis” value in data set [3] was “unchanged”.

With `NCCOCCOCCNc1ccc2c3c(cccc13)C(=O)N(CCOCCOCCN1C(=O)c3cccc4c(NCCOCCOCCN)ccc(c34)C1=O)C2=O` [Form 1, 2,2′-((ethane-1,2-diylbis(oxy))bis(ethane-2,1-diyl))bis(6-((2-(2-(2-aminoethoxy)ethoxy)ethyl)amino)-1H-benzo[de]isoquinoline-1,3(2H)-dione)], in data set [2] (setting [5]), the “DVS weight gain … to 95% relative humidity” value is 16.36%, the “DVS weight loss upon drying at 5% relative humidity” value came out at 0.66% and the “DVS weight loss … to 5% relative humidity” value was 15.51%. In data set [2] (setting [6]), the “DVS weight gain … to 95% relative humidity” value stood at 13.04%, the “DVS weight loss upon drying at 5% relative humidity” value is recorded as 0.6% and the “DVS weight loss … to 5% relative humidity” value came out at 13.12%. Besides, the “XRPD pattern after DVS cycling relative to the same sample prior to DVS analysis” value in data set [3] is on record as “unchanged”.

For the molecule `NCCOCCOCCNc1ccc2c3c(cccc13)C(=O)N(CCOCCOCCN1C(=O)c3cccc4c(NCCOCCOCCN)ccc(c34)C1=O)C2=O` [Form 2, 2,2′-((ethane-1,2-diylbis(oxy))bis(ethane-2,1-diyl))bis(6-((2-(2-(2-aminoethoxy)ethoxy)ethyl)amino)-1H-benzo[de]isoquinoline-1,3(2H)-dione)], in data set [2] (setting [6]), the “DVS weight gain … to 95% relative humidity” value came out at 7.2%, the “DVS weight loss upon drying at 5% relative humidity” value stood at 1.44% and the “DVS weight loss … to 5% relative humidity” value was 14.63%. Also, the “XRPD pattern after DVS cycling relative to the same sample prior to DVS analysis” value in data set [3] was “less crystalline”. Moreover, in data set [4], the “XRPD pattern after heating relative to the same sample before” value was “less crystalline”.
